Values after ≈ are worked out from the molar mass of the structure shown. Active and inactive are the calls of the source. The calls are words filed in the database; no cut-off is given here.
Columns and labels:
SH-SY5Y [1] = experiment: Neuroprotective activity against glutamate induced human SH-SY5Y cells at 1 uM preincubated for 30 mins followed by glutamate addition and measured after 24 hrs by LDH based assay; type: functional; settings: time 24.5 hrs
SH-SY5Y [2] = experiment: Cytotoxicity against human SH-SY5Y cells at 25 uM incubated for 72 hrs by CCK8 assay; type: toxicity, cell-based
SH-SY5Y [3] = experiment: Neuroprotective activity against glutamate induced human SH-SY5Y cells at 10 uM preincubated for 30 mins followed by glutamate addition and measured after 24 hrs by LDH based assay; type: functional; settings: time 24.5 hrs
SH-SY5Y [4] = experiment: Neuroprotective activity against glutamate induced human SH-SY5Y cells at 0.1 uM preincubated for 30 mins followed by glutamate addition and measured after 24 hrs by LDH based assay; type: functional; settings: time 24.5 hrs
Rattus norvegicus [5] = experiment: Neuroprotective activity against MCAO-reperfusion induced Sprague-Dawley rat assessed as reduction in infarct volume at 6 mg/kg, ip by TTC staining based analysis (reference value: 40.02 +/- 2.61 %); type: functional; design: scale not given: the % may be the effect or the level left
[6] = Tmax in Sprague-Dawley rat at 10 mg/kg, po measured upto 24 hrs by LC-MS/MS analysis; type: ADME, organism-based; settings: in vivo
[7] = Drug concentration in Sprague-Dawley rat brain at 10 mg/kg, iv after 1 hr by LC-MS/MS analysis; type: ADME, organism-based; settings: read-out: Ct
[8] = Ratio of drug concentration in Sprague-Dawley rat brain to plasma at 10 mg/kg, iv measured after 0.25 hrs by LC-MS/MS analysis; type: ADME, organism-based
[9] = Apparent volume of distribution in Sprague-Dawley rat at 2 mg/kg, iv measured upto 24 hrs by LC-MS/MS analysis; type: ADME, organism-based; settings: in vivo, read-out: Vz
[10] = Cmax in Sprague-Dawley rat at 2 mg/kg, iv measured upto 24 hrs by LC-MS/MS analysis; type: ADME, organism-based; settings: in vivo
Rattus norvegicus [11] = experiment: Neuroprotective activity against MCAO-reperfusion induced Sprague-Dawley rat assessed as reduction in neurological deficit score at 10 mg/kg, ip by TTC staining based analysis (reference value: 2.93 +/- 0.12); type: functional
Neuron [12] = experiment: Neuroprotective activity against glutamate-induced excitotoxicity in rat primary neurons at 0.1 uM; type: functional, cell-based
[13] = Mean residence time in Sprague-Dawley rat at 10 mg/kg, po measured upto 24 hrs by LC-MS/MS analysis; type: ADME, organism-based; settings: in vivo
[14] = AUC(0 to t) in Sprague-Dawley rat at 10 mg/kg, po measured upto 24 hrs by LC-MS/MS analysis; type: ADME, organism-based; settings: in vivo
[15] = Cmax in Sprague-Dawley rat at 10 mg/kg, po measured upto 24 hrs by LC-MS/MS analysis; type: ADME, organism-based; settings: in vivo
[16] = Ratio of drug concentration in Sprague-Dawley rat brain to plasma at 10 mg/kg, iv measured after 1 hr by LC-MS/MS analysis; type: ADME, organism-based
Neuron [17] = experiment: Inhibition of PSD95 to nNOS protein-protein interaction in glutamate induced rat neurons at 2 to 20 uM by co-immunoprecipitation method; type: cell-based; settings: dose 2-20 µM
[18] = AUC(0 to infinity) in Sprague-Dawley rat at 2 mg/kg, iv measured upto 24 hrs by LC-MS/MS analysis; type: ADME, organism-based; settings: in vivo
[19] = Apparent clearance in Sprague-Dawley rat at 2 mg/kg, iv measured upto 24 hrs by LC-MS/MS analysis; type: ADME, organism-based; settings: in vivo, read-out: CL(app)
[20] = Oral bioavailability in Sprague-Dawley rat at 10 mg/kg measured upto 24 hrs by LC-MS/MS analysis; type: ADME, organism-based; settings: in vivo
[21] = Mean residence time in Sprague-Dawley rat at 2 mg/kg, iv measured upto 24 hrs by LC-MS/MS analysis; type: ADME, organism-based; settings: in vivo
[22] = Drug concentration in Sprague-Dawley rat plasma at 10 mg/kg, iv after 0.25 hrs by LC-MS/MS analysis; type: ADME, organism-based
[23] = Ratio of drug concentration in Sprague-Dawley rat brain to plasma at 10 mg/kg, iv measured after 0.5 hrs by LC-MS/MS analysis; type: ADME, organism-based
[24] = Drug concentration in Sprague-Dawley rat plasma at 10 mg/kg, iv after 1 hr by LC-MS/MS analysis; type: ADME, organism-based
[25] = AUC(0 to infinity) in Sprague-Dawley rat at 10 mg/kg, po measured upto 24 hrs by LC-MS/MS analysis; type: ADME, organism-based; settings: in vivo
[26] = Solubility of the compound at pH 7.4; type: physicochemical; settings: buffer
Rattus norvegicus [27] = experiment: Neuroprotective activity against MCAO-reperfusion induced Sprague-Dawley rat assessed as reduction in infarct volume at 10 mg/kg, ip by TTC staining based analysis (reference value: 40.02 +/- 2.61 %); type: functional; design: scale not given: the % may be the effect or the level left
[28] = Drug concentration in Sprague-Dawley rat brain at 10 mg/kg, iv after 0.25 hrs by LC-MS/MS analysis; type: ADME, organism-based; settings: read-out: Ct
[29] = Drug concentration in Sprague-Dawley rat brain at 10 mg/kg, iv after 0.5 hrs by LC-MS/MS analysis; type: ADME, organism-based; settings: read-out: Ct
[30] = Half life in Sprague-Dawley rat at 2 mg/kg, iv measured upto 24 hrs by LC-MS/MS analysis; type: ADME, organism-based; settings: in vivo
[31] = Drug concentration in Sprague-Dawley rat plasma at 10 mg/kg, iv after 0.5 hrs by LC-MS/MS analysis; type: ADME, organism-based
[32] = Half life in Sprague-Dawley rat at 10 mg/kg, po measured upto 24 hrs by LC-MS/MS analysis; type: ADME, organism-based; settings: in vivo
[33] = AUC(0 to t) in Sprague-Dawley rat at 2 mg/kg, iv measured upto 24 hrs by LC-MS/MS analysis; type: ADME, organism-based; settings: in vivo
[34] = AUC(0 to infinity) in Sprague-Dawley rat at 5 mg/kg, iv measured upto 24 hrs by LC-MS/MS analysis; type: ADME, organism-based; settings: in vivo
Cortical neurone = experiment: Neuroprotective activity against glutamate induced Sprague-Dawley rat primary cortical neuron at 0.1 to 10 uM preincubated for 30 mins followed by glutamate/glycine addition for 30 mins and measured after 24 hrs by LDH based assay; type: functional, cell-based; settings: dose 0.1-10 µM, time 25.0 hrs
[35] = Half life in Sprague-Dawley rat at 5 mg/kg, iv measured upto 24 hrs by LC-MS/MS analysis; type: ADME, organism-based; settings: in vivo
[36] = Mean residence time in Sprague-Dawley rat at 5 mg/kg, iv measured upto 24 hrs by LC-MS/MS analysis; type: ADME, organism-based; settings: in vivo
[37] = AUC(0 to t) in Sprague-Dawley rat at 5 mg/kg, iv measured upto 24 hrs by LC-MS/MS analysis; type: ADME, organism-based; settings: in vivo
[38] = Apparent volume of distribution in Sprague-Dawley rat at 5 mg/kg, iv measured upto 24 hrs by LC-MS/MS analysis; type: ADME, organism-based; settings: in vivo, read-out: Vz
[39] = Cmax in Sprague-Dawley rat at 5 mg/kg, iv measured upto 24 hrs by LC-MS/MS analysis; type: ADME, organism-based; settings: in vivo

Nc1cc(Cl)cc(Cl)c1OCc1ccc(C(=O)NCC(=O)O)cc1
Activity (SH-SY5Y [1]): 47.04%
Activity (SH-SY5Y [2]): 5.67%
Activity (SH-SY5Y [3]): 66.01%
Activity (SH-SY5Y [4]): 18.96%

Nc1cc(Cl)cc(Cl)c1OCc1ccc(C(=O)N[C@@H]2CCCC[C@H]2N)cc1
Activity (SH-SY5Y [1]): 41.87%
Activity (SH-SY5Y [2]): 2.51%
Activity (SH-SY5Y [3]): 63.06%
Activity (SH-SY5Y [4]): 12.32%

CC1=NN(c2ccccc2)C(=O)C1 [EDARAVONE]
Activity (Rattus norvegicus [5]): 27.06%

CS(=O)(=O)Nc1ccc(COc2c(N)cc(Cl)cc2Cl)cc1
Activity (SH-SY5Y [1]): 45.26%
Activity (SH-SY5Y [2]): 3.57%
Activity (SH-SY5Y [3]): 69.19%
Activity (SH-SY5Y [4]): 15.4%

Nc1cc(Cl)cc(Cl)c1OCc1ccc(NS(=O)(=O)C(F)(F)F)cc1
Activity (SH-SY5Y [1]): 36.13%
Activity (SH-SY5Y [2]): 2.21%
Activity (SH-SY5Y [3]): 60.31%
Activity (SH-SY5Y [4]): 10.69%

NNC(=O)c1ccc(COc2c(N)cc(Cl)cc2Cl)cc1
Activity (SH-SY5Y [1]): 6.15%
Activity (SH-SY5Y [2]): 0.59%
Activity (SH-SY5Y [3]): 22.56%
Activity (SH-SY5Y [4]): 5.89%

Nc1cc(Cl)cc(Cl)c1OCc1ccc(NS(=O)(=O)c2ccccc2)cc1
Activity (SH-SY5Y [1]): 38.63%
Activity (SH-SY5Y [2]): 1.96%
Activity (SH-SY5Y [3]): 64.69%
Activity (SH-SY5Y [4]): 15.64%

CN(C)CCNC(=O)c1ccc(COc2c(N)cc(Cl)cc2Cl)cc1
Activity (SH-SY5Y [1]): 15.63%
Activity (SH-SY5Y [2]): 1.52%
Activity (SH-SY5Y [3]): 32.3%
Activity (SH-SY5Y [4]): 2.56%

C[C@@H](N)CNC(=O)c1ccc(COc2c(N)cc(Cl)cc2Cl)cc1
Activity (SH-SY5Y [1]): 41.38%
Activity (SH-SY5Y [2]): 3.13%
Activity (SH-SY5Y [3]): 63.79%
Activity (SH-SY5Y [4]): 13.55%

NCCNC(=O)c1ccc(COc2c(N)cc(Cl)cc2Cl)cc1
Activity (SH-SY5Y [1]): 41.14%
Activity (SH-SY5Y [2]): < 0%
Activity (SH-SY5Y [3]): 67.8%
Activity (SH-SY5Y [4]): 12.87%

Nc1cc(Cl)cc(Cl)c1OCc1ccc(S(N)(=O)=O)cc1
Activity (SH-SY5Y [1]): 15.52%
Activity (SH-SY5Y [2]): 6.21%
Activity (SH-SY5Y [3]): 33.84%
Activity (SH-SY5Y [4]): <0%

Nc1cc(Cl)cc(Cl)c1OCc1ccc(C(=O)NCCS)cc1
Activity (SH-SY5Y [1]): 35.12%
Activity (SH-SY5Y [2]): 5.23%
Activity (SH-SY5Y [3]): 61.07%
Activity (SH-SY5Y [4]): 9.67%

Nc1cc(Cl)cc(Cl)c1OCc1ccc(C(=O)NCCO)cc1
Activity (SH-SY5Y [1]): 26.31%
Activity (SH-SY5Y [2]): 1.21%
Activity (SH-SY5Y [3]): 41.58%
Activity (SH-SY5Y [4]): 4%

CN(CCN)C(=O)c1ccc(COc2c(N)cc(Cl)cc2Cl)cc1
Activity (SH-SY5Y [1]): 32.51%
Activity (SH-SY5Y [2]): 2.21%
Activity (SH-SY5Y [3]): 44.82%
Activity (SH-SY5Y [4]): 11.33%

Nc1ccccc1NC(=O)c1ccc(COc2c(N)cc(Cl)cc2Cl)cc1
Activity (SH-SY5Y [1]): 41.87%
Activity (SH-SY5Y [2]): 0.24%
Activity (SH-SY5Y [3]): 63.3%
Activity (SH-SY5Y [4]): 14.78%

NCC(=O)Nc1cc(Cl)cc(Cl)c1OCc1ccc(C(=O)Nc2ccccc2N)cc1
Tmax [6]: 0.83 h
concentration at 1 h [7]: 10 ng/g
Kp at 0.25 h [8]: 0.0056
Vd [9]: 8.81 L/kg
Cmax [10]: 2510 ng/mL
Activity (Rattus norvegicus [11]): 2.27
Activity (Neuron [12]): Active
MRT [13]: 3.26 h
AUC(0-t) at 24 h [14]: 1240 ng·h/mL
Cmax [15]: 233 ng/mL
Kp at 1 h [16]: 0.0305
inhibition (Neuron [17]): Active
AUC(0-inf) [18]: 1280 ng·h/mL
clearance [19]: 26.4 mL/min/kg
bioavailability ([20]; Sprague-Dawley): 19.6%
MRT [21]: 1.46 h
concentration at 0.25 h [22]: 1890 ng/mL
Kp at 0.5 h [23]: 0.0082
concentration at 1 h [24]: 329 ng/mL
AUC(0-inf) ([25]; Sprague-Dawley): 1260 ng·h/mL
solubility [26]: 23 µg/mL (≈ 50.1 µM)
Activity (Rattus norvegicus [27]): 28.31%
concentration at 0.25 h [28]: 10.6 ng/g
concentration at 0.5 h [29]: 7.64 ng/g
half-life [30]: 4.08 h
concentration at 0.5 h [31]: 935 ng/mL
half-life [32]: 4.26 h
AUC(0-t) at 24 h [33]: 1270 ng·h/mL

NCCCNC(=O)c1ccc(COc2c(N)cc(Cl)cc2Cl)cc1
Tmax [6]: 1.5 h
AUC [34]: 317.96 ng·h/mL
Activity (Cortical neurone): Active
MRT [13]: 3.26 h
Activity (SH-SY5Y [1]): 39.65%
AUC(0-t) at 24 h [14]: 309 ng·h/mL
half-life [35]: 2.67 h
MRT [36]: 1.46 h
AUC(0-t) at 24 h [37]: 296 ng·h/mL
Cmax [15]: 69.3 ng/mL
Vd [38]: 24.7 L/kg
Activity (SH-SY5Y [2]): 1.77%
Cmax [39]: 471 ng/mL
F ([20]; po, 10 mg/kg, 24 h): 21.79%
Activity (SH-SY5Y [3]): 61.33%
AUC ([25]; po, 10 mg/kg, 24 h): 365.22 ng·h/mL
Activity (SH-SY5Y [4]): 21.18%
half-life [32]: 1.96 h

Nc1cc(Cl)cc(Cl)c1OCc1ccc(C(=O)N[C@H]2CCCC[C@@H]2N)cc1
Activity (SH-SY5Y [1]): 39.66%
Activity (SH-SY5Y [2]): 2.42%
Activity (SH-SY5Y [3]): 65.52%
Activity (SH-SY5Y [4]): 10.1%

COCCNC(=O)c1ccc(COc2c(N)cc(Cl)cc2Cl)cc1
Activity (SH-SY5Y [1]): 40.46%
Activity (SH-SY5Y [2]): 1.33%
Activity (SH-SY5Y [3]): 65.14%
Activity (SH-SY5Y [4]): 11.71%

Reference: ChEMBL document CHEMBL5634140, “Discovery of benzyloxy benzamide derivatives as potent neuroprotective agents against ischemic stroke” (Eur J Med Chem, 2023)
